Patent US6448262B1, “Pesticidal and parasiticidal use of 2-(substituted thio) thiazolo-[4,5-b]pyridine compounds” (American Cyanamid Company, priority 1998, dated 2002)
Where two headings read alike, the source gives them in different places.

Key:
Assay type in all cases: in vivo
[1] = system: Tetranychus urticae (OP-resistant strain), 2-spotted spider mite; assay: 2-spotted spider mite (TSM) plant dip test; conditions: 300 ppm; mortality counts after 2 days
Experimental: (§1) Subsequent dilutions are made with water as needed.
Tetranychus urticae (OP-resistant Strain), 2-spotted Spider Mite (TSM)
Sieva lima bean plants with primary leaves expanded to 7-8 cm are selected and cut back to one plant per pot. A small piece is cut from an infested leaf taken from the main colony and placed on each leaf of the test plants. This is done about 2 hours before treatment to allow the mites to move over to the test plant to lay eggs. The size of the cut, infested leaf is varied to obtain about 100 mites per leaf. At the time of test treatment, the piece of leaf used to transfer the mites is removed and discarded. The newly-infested plants are dipped in the test solution for 3 seconds with agitation and set in the hood to dry. After 2 days, one leaf is removed and mortality counts are made.

[2] = system: Aphis gossypii, cotton aphid; assay: Cotton aphid (CA) cotyledon dip test; conditions: 300 ppm; mortality counts after 5 days
Source text: as §1
Aphis gossypii, Cotton Aphid (CA)
Cotton plants at the cotyledon stage are selected and cut back to one plant per pot. A heavily infested leaf is taken from the main colony and placed on top of each cotyledon. The aphids are allowed to transfer to the host plant overnight. At the time of test treatment, the leaf used to transfer the aphids is removed and discarded. The cotyledons are dipped in the test solution and allowed to dry. After 5 days, mortality counts are made.

C. elegans = assay: Evaluation of test compounds against C. elegans; design: key: 9: complete kill in 4 hours; 8: complete kill in 24 hours; 7: markedly reduced motility in approximately 95% of worms in 24 hours; 0: normal motility, same as controls; conditions: 300 ppm; observed at 4 and 24 hours post-immersion
Experimental: Evaluation of Test Compounds Against C. elegans Cultures of C. elegans (Bristol strain from J. Lewis) are maintained on E. coli lawns on NG Agar Plates at […]. New cultures are established weekly. Nematodes for testing are washed from cultures using Na buffer. Compounds are dissolved in 80% acetone. The test material is micropipetted (25 μl) into a single well of a 96-well sterile tissue culture plate and the solvent allowed to evaporate. A freshly prepared volume (50 μl) of C. elegans in Na buffer is micropipetted into each treated well and several control wells per plate. Plates are incubated at 20° C. Observations for efficacy are made under a dissecting microscope at 4 and 24 hours post-immersion. Immediately prior to reading the plate, it is gently tapped to stimulate the movement of the worms. Activity is judged subjectively, but semi-quantitatively, based on the drug effects on motility of the adults and larvae.

[3] = system: Diabrotica virgifera virgifera Leconte, 2nd instar western corn rootworm; assay: Western corn rootworm (WCR) soil jar test; conditions: 50 ppm; mortality counts after 5 days
Experimental: as §1
Diabrotica virgifera virgifera Leconte, 2nd Instar Western Corn Rootworm (WCR)
One cc of fine talc is placed in a 30 mL wide-mouth screw-top glass jar. One mL of the appropriate acetone test solution is pipetted onto the talc so as to provide 1.25 mg of active ingredient per jar. The jars are set under a gentle air flow until the acetone is evaporated. The dried talc is loosened, 1 cc of millet seed is added to serve as food for the insects and 25 mL of moist soil is added to each jar. The jar is capped and the contents thoroughly mixed mechanically. Following this, ten 2nd instar rootworms are added to each jar and the jars are loosely capped to allow air exchange for the larvae. The treatments are held for 5 days when mortality counts are made. Missing larvae are presumed dead, since they decompose rapidly and cannot be found. The concentrations of active ingredient used in this test correspond approximately to 50 kg/ha.

[4] = system: Diabrotica undecimpunctata howardi, eggs-southern corn rootworm; assay: Southern corn rootworm eggs (SCR-Eggs) treated diet test; conditions: 1000 ppm; mortality counts after 7 days
Experimental: as §1
(§2) Spodoptera eridania, Eggs-southern Armyworm and Diabrotica undecimpunctata howardi, Eggs-southern Corn Rootworm (SAW-Eggs) and (SCR-Eggs)
(§3) Wells containing artificial diet are treated with the test solutions and dried. The appropriate insect eggs are then placed in the wells. The wells are covered with vented, adhesive, clear plastic covers. After 7 days, mortality counts are made.

[5] = system: Spodoptera eridania, 2nd instar larvae, southern armyworm; assay: Southern armyworm (SAW) 2nd instar larvae leaf dip test; conditions: 300 ppm; observations at 5 days
Source text: as §1
Spodoptera eridania, 2nd Instar Larvae, Southern Armyworm (SAW)
A Sieva lima bean leaf expanded to 7-8 cm in length is dipped in the test solution with agitation for 3 seconds and allowed to dry in a hood. The leaf is then placed in a 100×10 mm petri dish containing a damp filter paper on the bottom and ten 2nd instar caterpillars. At 5 days, observations are made of mortality, reduced feeding, or any interference with normal molting.

[6] = system: Spodoptera eridania, eggs-southern armyworm; assay: Southern armyworm eggs (SAW-Eggs) treated diet test; conditions: 3000 ppm; mortality counts after 7 days
Experimental: as §1, §2, §3

[7] = system: Lucilia serricata first instar blowfly larvae; assay: Ectoparasiticide evaluation in Lucilia serricata; conditions: rate 100 ppm; for mortality at 100 ppm: Lucilia
Experimental: Ectoparasiticide Evaluation of Test Compounds in Lucilia serricata
The test compound is dissolved in acetone to a concentration of 100 ppm. 200 μL is added to three 12 mm filter paper disks in 128 well assay trays and allowed to dry. Approximately 20 first instar blowfly larvae and 200 μL bovine serum are added to the disks. Wells are covered with plastic lids and incubated at about 27° C. Mortality is determined at 24 and 48 hours.

[8] = system: Root-knot nematode, Meloidogyne incognita; conditions: potted tomato, scored 4 weeks after inoculation
Source text: Soil Nematicide Assay Targeting Root-knot Nematode, Meloidogyne incognita on Potted Tomato
The test compound is solubilized in acetone and diluted with water to the required test concentration. Silty loam soil in a 3 inch pot with a 3-week-old tomato transplant is drenched with the test solution. Four thousand root-knot nematode Meloidogyne incognita J2 larvae are dispensed in a aqueous suspension onto the soil. The pots are kept in the greenhouse and 4 weeks following inoculation of the pots, plant roots are washed free of soil and scored for the degree of root galling using the root-knot galling index identified below.

[9] = 24 hr, read-out: Percent Mortality 24 hr
[10] = 48 hr, read-out: Percent Mortality 48 hr

CCOC(=O)CSc1nc2ncccc2s1 [Example 5]
TSM rating [1]: 0 | CA rating [2]: 0 | C. elegans activity rating (motility of adults and larvae) (C. elegans): 9 | WCR rating [3]: 0 | SCR Eggs rating [4]: 0 | SAW rating [5]: 0

COC(=O)CSc1nc2ncccc2s1 [Example 4]
TSM rating [1]: 0 | CA rating [2]: 0 | C. elegans activity rating (motility of adults and larvae) (C. elegans): 9 | SAW Eggs rating [6]: 0 | WCR rating [3]: 0 | SCR Eggs rating [4]: 0 | SAW rating [5]: 0

FC(F)(Br)Sc1nc2ncccc2s1 [Example 7, 2-[(Bromodifluoromethyl)thio]thiazolo[4,5-b]pyridine]
TSM rating [1]: 5 | mortality at 100 ppm [7, 9]: 80% | mortality at 100 ppm [7, 10]: 100% | CA rating [2]: 0 | SAW Eggs rating [6]: 9 | WCR rating [3]: 9 | SCR Eggs rating [4]: 9 | SAW rating [5]: 0

FC(F)Sc1nc2ncccc2s1 [Example 8, 2-[(Difluoromethyl)thio]thiazolo[4,5-b]pyridine]
TSM rating [1]: 8 | mortality at 100 ppm [7, 9]: 0% | mortality at 100 ppm [7, 10]: 0% | CA rating [2]: 3 | SAW Eggs rating [6]: 9 | WCR rating [3]: 9 | SCR Eggs rating [4]: 9 | SAW rating [5]: 0

FC(F)=C(F)CCSc1nc2ncccc2s1 [Example 1, 2-[(4,4,3-Trifluoro-3-butenyl)thio]thiazolo[4,5-b]pyridine]
TSM rating [1]: 0 | mortality at 100 ppm [7, 9]: 100% | mortality at 100 ppm [7, 10]: 100% | Galling Index ([8]; rate 10 ppm soil drench): 0 (0) | Galling Index ([8]; rate 25 ppm soil drench): 0^1 (0) | Galling Index ([8]; rate 50 ppm soil drench): 0^1 (0) | CA rating [2]: 0 | C. elegans activity rating (motility of adults and larvae) (C. elegans): 7 | SAW Eggs rating [6]: 8 | WCR rating [3]: 0 | SCR Eggs rating [4]: 9 | SAW rating [5]: 0

CCOC(=O)C(C)Sc1nc2ncccc2s1 (centres unmarked) [Example 6]
TSM rating [1]: 0 | Percent Mortality 24 hr ([7]; 24 hr): 0% | Percent Mortality 48 hr ([7]; 48 hr): 0% | CA rating [2]: 0 | C. elegans activity rating (motility of adults and larvae) (C. elegans): 9 | SAW Eggs rating [6]: 9 | WCR rating [3]: 0 | SCR Eggs rating [4]: 0 | SAW rating [5]: 0

C=CCSc1nc2ncccc2s1 [Example 2]
TSM rating [1]: 0 | Percent Mortality 24 hr ([7]; 24 hr): 0% | Percent Mortality 48 hr ([7]; 48 hr): 0% | CA rating [2]: 0 | C. elegans activity rating (motility of adults and larvae) (C. elegans): 0 | SAW Eggs rating [6]: 0 | WCR rating [3]: 1 | SCR Eggs rating [4]: 0 | SAW rating [5]: 0
